The text below walks through data of US8084254B2, “Human blood brain barrier model” (Institut National de la Sante et de la Recherche Medicale …, priority 2004, dated 2011).

The conditions of data set [1]: brain perfusion of adult rats; reported values (Cisternino et al.); cited from earlier work.
In a further data set the target is P-gp (Homo sapiens, UniProt P08183). Nature of the data set: Drug accumulation in hCMEC/D3 cells with P-gp inhibitor. The settings on record: PSC-833 10 μM.
A further data set has as its system hCMEC/D3 monolayers. Nature of the data set: Transendothelial electrical resistance (TEER) of hCMEC/D3 monolayers. Type of data set: cell-based, human. The settings on record: treatment of hCMEC/D3 monolayers. How it is done:
Transendothelial electrical resistance (TEER) of hCMEC/D3 monolayers on Transwell-Clear™ filters was measured using an Endohm 12 chamber and an Endohmeter (World Precision Instruments Inc., Sarasota, Fla., USA). The baseline resistance of ECM-coated inserts was always subtracted from the resistance obtained in the presence of the endothelial cultures. Primary cultures of rat brain endothelial cells were used as control.

In a further data set the test system is hCMEC/D3 cells. As to the method: HCMEC/D3 cells were seeded on the filters at a density of 2×10^5 cells/cm^2 in normal culture medium (EGM-2). […] All plates were kept at 37° C. […] PS (clearance) is the permeability surface area product and s is the surface area of the filter (1 cm^2).

Chain of P-gp (P08183 whole entry): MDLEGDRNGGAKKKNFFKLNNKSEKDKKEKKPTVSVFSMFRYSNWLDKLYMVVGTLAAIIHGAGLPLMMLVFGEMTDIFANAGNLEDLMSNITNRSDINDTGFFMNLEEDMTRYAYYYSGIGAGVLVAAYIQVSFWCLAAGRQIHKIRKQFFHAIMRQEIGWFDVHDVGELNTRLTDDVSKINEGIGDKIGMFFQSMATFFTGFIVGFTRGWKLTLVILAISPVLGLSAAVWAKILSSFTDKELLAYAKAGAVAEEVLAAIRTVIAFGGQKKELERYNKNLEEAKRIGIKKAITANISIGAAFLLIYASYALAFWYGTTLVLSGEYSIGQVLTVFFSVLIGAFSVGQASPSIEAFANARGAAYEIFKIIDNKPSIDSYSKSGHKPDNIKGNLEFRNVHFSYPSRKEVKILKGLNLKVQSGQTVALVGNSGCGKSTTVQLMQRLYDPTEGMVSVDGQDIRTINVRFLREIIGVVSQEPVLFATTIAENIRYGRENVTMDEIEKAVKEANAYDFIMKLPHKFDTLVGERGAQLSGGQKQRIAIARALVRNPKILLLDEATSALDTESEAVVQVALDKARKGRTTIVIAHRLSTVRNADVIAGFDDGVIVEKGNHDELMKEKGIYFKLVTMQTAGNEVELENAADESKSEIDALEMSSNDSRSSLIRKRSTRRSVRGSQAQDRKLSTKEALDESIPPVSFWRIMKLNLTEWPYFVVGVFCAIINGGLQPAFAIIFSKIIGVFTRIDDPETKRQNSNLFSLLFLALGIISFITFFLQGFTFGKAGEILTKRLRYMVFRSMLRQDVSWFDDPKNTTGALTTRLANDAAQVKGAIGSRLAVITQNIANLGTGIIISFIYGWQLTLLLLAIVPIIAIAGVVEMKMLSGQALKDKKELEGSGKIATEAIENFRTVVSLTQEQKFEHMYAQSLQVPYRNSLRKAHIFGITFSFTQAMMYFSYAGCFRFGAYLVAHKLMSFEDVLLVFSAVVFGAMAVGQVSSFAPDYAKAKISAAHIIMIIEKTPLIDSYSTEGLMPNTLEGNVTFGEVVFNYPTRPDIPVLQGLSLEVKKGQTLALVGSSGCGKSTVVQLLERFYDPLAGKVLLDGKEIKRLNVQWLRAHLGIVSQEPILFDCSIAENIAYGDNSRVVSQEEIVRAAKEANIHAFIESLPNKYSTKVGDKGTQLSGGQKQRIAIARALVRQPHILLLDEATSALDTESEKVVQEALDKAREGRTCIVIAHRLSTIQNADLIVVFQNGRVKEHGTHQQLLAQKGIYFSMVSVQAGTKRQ
Experimental for P-gp: The plates were shaken during both preincubation and incubation periods to reduce the effect of the aqueous boundary layer on drug accumulation. The cells were rapidly washed three times with ice-cold PBS to eliminate the extracellular drug, and then lyed in 100 μl 0.1 M NaOH or 1% Triton-X100.

Regarding `CN1C(=O)CN=C(c2ccccc2)c2cc(Cl)ccc21` [Diazepam], the “In vivo Kin” value in data set [1] is 45 µL/s/g.
Regarding `C/C=C/C[C@@H](C)C(=O)[C@H]1C(=O)N[C@@H](C(C)C)C(=O)N(C)CC(=O)N(C)[C@@H](CC(C)C)C(=O)N[C@@H](C(C)C)C(=O)N(C)[C@@H](CC(C)C)C(=O)N[C@@H](C)C(=O)N[C@H](C)C(=O)N(C)[C@@H](CC(C)C)C(=O)N(C)[C@@H](CC(C)C)C(=O)N(C)[C@@H](C(C)C)C(=O)N1C` [PSC-833], the “[3H] daunorubicin uptake by hCMEC/D3 cells” value at P-gp was “markedly increased”. The “calcein-AM uptake by hCMEC/D3 cells” value at P-gp (calcein-AM 10 μM) is listed as “markedly increased”. In addition, the “rhodamine 123 uptake by hCMEC/D3 cells” value at P-gp (rhodamine 123 10 μM) is recorded as “markedly increased”.
For `COc1cc2c(c(OC)c1OC)-c1ccc(OC)c(=O)cc1[C@@H](NC(C)=O)CC2` [Colchicine], the “In vivo Kin” value in data set [1] was 0.28 µL/s/g.
For the compound `CC[C@]1(O)C[C@H]2CN(CCc3c([nH]c4ccccc34)[C@@](C(=O)OC)(c3cc4c(cc3OC)N(C=O)[C@H]3[C@@](O)(C(=O)OC)[C@H](OC(C)=O)[C@]5(CC)C=CCN6CC[C@]43[C@@H]65)C2)C1` [Vincristine], the “In vivo Kin” value in data set [1] was 0.06 µL/s/g.
With `CN1CC[C@]23c4c5ccc(O)c4O[C@H]2[C@@H](O[C@@H]2O[C@H](C(=O)O)[C@@H](O)[C@H](O)[C@H]2O)C=C[C@H]3[C@H]1C5` [M6G, morphine-6-glucuronide], the “In vivo Kin” value in data set [1] is 0.03 µL/s/g.
Turning to `Nc1ncnc2c1nc(Sc1ccc(Cl)cc1)n2[C@@H]1O[C@@H]2COP(=O)(O)O[C@H]2[C@H]1O` [chlorophenylthio-cAMP], the “Effect on TEER value” in the data set on hCMEC/D3 monolayers is on record as “failed to significantly increase”.
For `COc1cc2nc(N3CCN(C(=O)c4ccco4)CC3)nc(N)c2cc1OC` [Prazosin], the “In vivo Kin” value in data set [1] is 0.96 µL/s/g.
Lucifer Yellow: the “Permeability of Lucifer Yellow across hCMEC/D3” value in the data set with hCMEC/D3 cells was 0.53±0.10 10^−3 cm/min.
